Reference: ChEMBL document CHEMBL3137667, “[Drug-induced liver injury; fourteenth updated edition of the bibliographic database of liver injuries and related drugs]” (Gastroenterol Clin Biol, 2004)

How the values were obtained:
[1] = Highest frequency of moderate liver toxicity observed during clinical trials, expressed as a percentage. [column '% BIOL' in source]; conditions: human
[2] = human
[3] = human; remark: listed apart in the source
[4] = Comments (NB not yet translated). [column 'COMMENTAIRES' in source]; conditions: human
[5] = human; remark: listed apart in the source
[6] = human; remark: listed apart in the source
[7] = human, serum, 4383 h
[8] = Presence of at least one case with successful reintroduction. [column 'REINT' in source]; conditions: human
[9] = human, serum
[10] = human; remark: listed apart in the source
[11] = human; remark: listed apart in the source
[12] = Highest frequency of acute liver toxicity observed during clinical trials, expressed as a percentage. [column '% AIGUE' in source]; conditions: human
[13] = human; remark: listed apart in the source
[14] = human; remark: listed apart in the source
[15] = human; remark: listed apart in the source
[16] = human, serum; remark: listed apart in the source
[17] = Times to onset, minimal and maximal, observed in the indexed observations. [column 'DELAI' in source]; conditions: human
[18] = Proposed mechanism(s) of liver damage. [column 'MEC' in source]; conditions: human
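Throughout, for Hepatotoxicity (association with vascular disease): count of indexed literature references reporting vascular liver injury in humans, e.g. peliosis hepatitis, hepatic veno-occlusive disease or Budd-Chiari syndrome.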
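Throughout, for Hepatotoxicity (benign tumour): value is a count of indexed literature references citing a benign tumour confirmed by histopathology.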
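Throughout, for Hepatotoxicity (choleostasis): human cholestatic liver injury, shown by histopathology or by peak ALT or AST elevation over alkaline phosphatase ratio below 2, value counts indexed literature reports.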
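Throughout, for Hepatotoxicity (chronic liver disease): chronic liver injury confirmed by histopathology or persistently raised serum aminotransferase activity beyond 6 months, value given as the count of indexed literature references.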
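Throughout, for Hepatotoxicity (cirrhosis): value is a count of indexed literature references reporting cirrhosis confirmed by histopathology.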
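Throughout, for Hepatotoxicity (cytolytic): human cytolytic liver injury, shown by histopathology or by a ratio above 5 of peak ALT or AST elevation to alkaline phosphatase elevation, value counts indexed references.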
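Throughout, for Hepatotoxicity (granulomatous hepatitis): value is a count of indexed literature references reporting granulomatous liver disease confirmed by histopathology.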
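Throughout, for Hepatotoxicity (malignant tumour): malignant tumour confirmed by histopathology, value gives the count of indexed literature references reporting it.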
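Throughout, for Hepatotoxicity (severe hepatitis): human clinical data: severe hepatitis, meaning potentially life-threatening liver failure or clinically observed cases, the value counts how many indexed literature references report it.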
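Throughout, for Hepatotoxicity (steatosis): steatosis confirmed by histopathology, value is the count of indexed references.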

SMILES	Hepatotoxicity (moderate) ([1]; Liver)	Hepatotoxicity (cirrhosis) [2]	Hepatotoxicity (cytolytic) [3]	Hepatotoxicity (comment) [4]	Hepatotoxicity (steatosis) [5]	Hepatotoxicity (malignant tumour) [6]	Hepatotoxicity (chronic liver disease) [7]	Hepatotoxicity (successful reintroduction) [8]	Hepatotoxicity (acute) [9]	Hepatotoxicity (severe hepatitis) ([10]; Liver)	Hepatotoxicity (choleostasis) [11]	Hepatotoxicity (benign tumour) [13]	Hepatotoxicity (granulomatous hepatitis) [14]	Hepatotoxicity (association with vascular disease) [15]	Hepatotoxicity (moderate) [16]	Hepatotoxicity (time to onset) [17]	Hepatotoxicity (mechanism) [18]	Hepatotoxicity (moderate) [1]	Hepatotoxicity (severe hepatitis) [10]	Hepatotoxicity (acute) [12]	other results
CC(C)Cc1ccc(C(C)C(=O)O)cc1 (configuration not stated) [IBUPROFEN]	16%	1	14	RC/DICLOFENAC CHOLESTASE_PROLONGEE DUCTOPENIE REACTIVATION_HSV6	1	0	1	yes	20	6	6	0	0	0	10	1 day - 4 months	Allergic, Overdose				Hepatotoxicity (acute) ([12]; Liver): 0%
Sc1ncnc2nc[nH]c12 [MERCAPTOPURINE ANHYDROUS]	53%	0		I/DOXORUBICINE CHOLANGITE	0	3	0	yes	30	5		0		2	13	2 days - 2 years					Hepatotoxicity (cytolytic) ([3]; Liver): 15; Hepatotoxicity (choleostasis) ([11]; Liver): 15; Hepatotoxicity (acute) ([12]; Liver): 4.9%; Hepatotoxicity (granulomatous hepatitis) ([14]; Liver): 0; Hepatotoxicity (mechanism) ([18]; Liver): Dose-dependant
Nc1ccc(O)c(C(=O)O)c1 [MESALAMINE]		0	5	CHOLANGITE RC/SULFASALAZINE AC_ANTI-N/-ML	0	0	1	yes	12		3	0	1	0	14	1 day - 1 year	Allergic	21%	1	1%	
C[C@](N)(Cc1ccc(O)c(O)c1)C(=O)O [METHYLDOPA]		7	16	AC_ANTI-N/-ML/-MF RC/ALLOPURINOL	3	1	27	yes	24		10	0	8	0	10	3 days - 12 years	Allergic, Toxic	35%	13	1.3%	
CN1CCN2c3ccccc3Cc3ccccc3C2C1 (configuration not stated) [MIANSERIN]		0	3	RC/NOMIFENSINE	0	0	0	yes	5		5	0	0	0	3	1 day - 1.8 years	Dose-dependant, Reactive metabolite	26%	0	0%	
CCn1cc(C(=O)O)c(=O)c2cc(F)c(N3CCNCC3)cc21 [NORFLOXACIN]	7.7%	0		AC_ANTI-N	0	0	0	yes	9	0		0		0	15	1 day - 10 days					Hepatotoxicity (cytolytic) ([3]; Liver): 3; Hepatotoxicity (choleostasis) ([11]; Liver): 6; Hepatotoxicity (acute) ([12]; Liver): 0%; Hepatotoxicity (granulomatous hepatitis) ([14]; Liver): 0; Hepatotoxicity (mechanism) ([18]; Liver): Allergic
Cc1ncc([N+](=O)[O-])n1CC(O)CCl (configuration not stated) [ORNIDAZOLE]		0	2	AC_ANTI-ML/-N	0	0	1	yes	2		0	0	0	0	1	3 days - 6 months	Allergic	0%	0	0%	
Cc1onc(-c2ccccc2)c1C(=O)N[C@@H]1C(=O)N2[C@@H]1SC(C)(C)[C@@H]2C(=O)O [OXACILLIN]		0	14	RC/CEFALOTINE/NAFCILLINE	1	0	0	yes	17		4	0	1	0	12	2 days - 2.5 months	Allergic, Toxic Metabolite	81%	0	22%	
O=C1Nc2ccccc2C1(c1ccc(O)cc1)c1ccc(O)cc1 [OXYPHENISATINE]		8	1	AC_ANTI-ADN/-N/-ML	0	0	27	yes	6		0	0	0	0	0	1 week - 13 years	Allergic	0%	1	0%	
